According to patent US8236835B2, “Heterocyclic inhibitors of stearoyl-CoA desaturase” (Novartis AG, priority 2006, dated 2012):

| melting point | SMILES |
| --- | --- |
| 222 to 224 °C | Cc1nc(N2CCCC2=O)sc1C(=O)NCc1ccccc1 [Example 1, N-benzyl-4-methyl-2-(2-oxopyrrolidin-1-yl)thiazole-5-carboxamide] |
| 175 to 176 °C | Cc1nc(N2CCCCC2=O)sc1C(=O)NCc1ccccc1 [Example 1.2, N-benzyl-4-methyl-2-(2-oxopiperidin-1-yl)thiazole-5-carboxamide] |
| 175 to 176 °C | Cc1nc(N2CCC(Cc3ccc(C(F)(F)F)cc3)C2=O)sc1C(=O)NCc1ccc(F)cc1 (stereo not shown) [Example 2, N-(4-fluorobenzyl)-4-methyl-2-(2-oxo-3-(4-(trifluoromethyl)benzyl)pyrrolidin-1-yl)thiazole-5-carboxamide] |
| 196 to 197 °C | Cc1nc(N2CCC(Cc3ccc(F)cc3)C2=O)sc1C(=O)NCc1ccc(F)cc1 (stereo not shown) [Example 2.1, N-(4-fluorobenzyl)-2-(3-(4-fluorobenzyl)-2-oxopyrrolidin-1-yl)-4-methylthiazole-5-carboxamide] |
| 143 to 145 °C | Cc1nc(N2CCC(Cc3ccc(OC(F)F)cc3)C2=O)sc1C(=O)NCc1ccc(F)cc1 (stereo not shown) [Example 2.2, 2-(3-(4-(difluoromethoxy)benzyl)-2-oxopyrrolidin-1-yl)-N-(4-fluorobenzyl)-4-methylthiazole-5-carboxamide] |
| 165 to 166 °C | Cc1nc(N2CCC(Cc3ccc(OC(F)(F)F)cc3)C2=O)sc1C(=O)NCc1ccc(F)cc1 (stereo not shown) [Example 2.3, N-(4-fluorobenzyl)-4-methyl-2-(2-oxo-3-(4-(trifluoromethoxy)benzyl)pyrrolidin-1-yl)thiazole-5-carboxamide] |
| 174 to 175 °C | Cc1nc(N2CCC(Cc3ccc(C(F)(F)F)cc3)C2=O)sc1C(=O)NCc1ccccc1 (stereo not shown) [Example 2.4, N-benzyl-4-methyl-2-(2-oxo-3-(4-(trifluoromethyl)benzyl)pyrrolidin-1-yl)thiazole-5-carboxamide] |
| 132 to 133 °C | Cc1nc(N2CCC(Cc3ccc(OC(F)F)cc3)C2=O)sc1C(=O)NCc1ccccc1 (stereo not shown) [Example 2.5, N-benzyl-2-(3-(4-(difluoromethoxy)benzyl)-2-oxopyrrolidin-1-yl)-4-methylthiazole-5-carboxamide] |
| 217 to 218 °C | Cc1nc(N2CCCC(Cc3ccc(C(F)(F)F)cc3)C2=O)sc1C(=O)NCc1ccccc1 (stereo not shown) [Example 2.6, N-benzyl-4-methyl-2-(2-oxo-3-(4-(trifluoromethyl)benzyl)piperidin-1-yl)thiazole-5-carboxamide] |
| 110 to 113 °C | Cc1ccc(CC2CCCN(c3nc(C)c(C(=O)NCc4ccccc4)s3)C2=O)cc1 (stereo not shown) [Example 2.7, N-benzyl-4-methyl-2-(3-(4-methylbenzyl)-2-oxopiperidin-1-yl)thiazole-5-carboxamide] |
| 170 to 171 °C | Cc1nc(N2CCCC(Cc3cccc(F)c3)C2=O)sc1C(=O)NCc1ccccc1 (stereo not shown) [Example 2.8, N-benzyl-2-(3-(3-fluorobenzyl)-2-oxopiperidin-1-yl)-4-methylthiazole-5-carboxamide] |
| 116 to 118 °C | COc1ccc(CC2CCCN(c3nc(C)c(C(=O)NCc4ccccc4)s3)C2=O)cc1 (stereo not shown) [Example 2.9, N-benzyl-2-(3-(4-methoxybenzyl)-2-oxopiperidin-1-yl)-4-methylthiazole-5-carboxamide] |
| 144 to 145 °C | Cc1nc(N2CCCC(Cc3cc(F)ccc3F)C2=O)sc1C(=O)NCc1ccccc1 (stereo not shown) [Example 2.10, N-benzyl-2-(3-(2,5-difluorobenzyl)-2-oxopiperidin-1-yl)-4-methylthiazole-5-carboxamide] |
| 162 to 164 °C | Cc1nc(N2CCCC(Cc3ccccc3)C2=O)sc1C(=O)NCc1ccccc1 (stereo not shown) [Example 2.11, N-benzyl-2-(3-benzyl-2-oxopiperidin-1-yl)-4-methylthiazole-5-carboxamide] |
| 154 to 155 °C | Cc1nc(N2CCCC(Cc3ccc(F)cc3)C2=O)sc1C(=O)NCc1ccccc1 (stereo not shown) [Example 2.12, N-benzyl-2-(3-(4-fluorobenzyl)-2-oxopiperidin-1-yl)-4-methylthiazole-5-carboxamide] |
| 173 to 175 °C | Cc1nc(N2CCCC(Cc3ccc(F)cc3)C2=O)sc1C(=O)NCc1cccc(F)c1 (stereo not shown) [Example 2.13, N-(3-fluorobenzyl)-2-(3-(4-fluorobenzyl)-2-oxopiperidin-1-yl)-4-methylthiazole-5-carboxamide] |
| 177 to 178 °C | Cc1nc(N2CCCC(Cc3ccc(C(F)(F)F)cc3)C2=O)sc1C(=O)NCc1cccc(F)c1 (stereo not shown) [Example 2.14, N-(3-fluorobenzyl)-4-methyl-2-(2-oxo-3-(4-(trifluoromethyl)benzyl)piperidin-1-yl)thiazole-5-carboxamide] |

| melting point | SMILES |
| --- | --- |
| 153 to 155 °C | Cc1nc(N2CCC(CC3CC3)C2=O)sc1C(=O)NCc1ccc(F)cc1 (stereo not shown) [Example 3, 2-(3-(cyclopropylmethyl)-2-oxopyrrolidin-1-yl)-N-(4-fluorobenzyl)-4-methylthiazole-5-carboxamide] |
| 124 to 126 °C | Cc1nc(N2CCCC(CCc3ccccc3)C2=O)sc1C(=O)NCc1ccccc1 (stereo not shown) [Example 3.1, N-benzyl-4-methyl-2-(2-oxo-3-phenethylpiperidin-1-yl)thiazole-5-carboxamide] |
| 140 to 141 °C | Cc1nc(N2CCCC(CCCc3ccccc3)C2=O)sc1C(=O)NCc1ccccc1 (stereo not shown) [Example 3.2, N-benzyl-4-methyl-2-(2-oxo-3-(3-phenylpropyl)piperidin-1-yl)thiazole-5-carboxamide] |
| 151 to 152 °C | Cc1nc(N2CCC(NCCC3CC3)C2=O)sc1C(=O)NCc1ccc(F)cc1 (stereo not shown) [Example 5, 2-(3-(2-cyclopropylethylamino)-2-oxopyrrolidin-1-yl)-N-(4-fluorobenzyl)-4-methylthiazole-5-carboxamide] |
| 123 to 124 °C | Cc1nc(N2CCC(NCc3ccc(F)cc3)C2=O)sc1C(=O)NCc1ccc(F)cc1 (stereo not shown) [Example 5.1, N-(4-fluorobenzyl)-2-(3-(4-fluorobenzylamino)-2-oxopyrrolidin-1-yl)-4-methylthiazole-5-carboxamide] |
| 142 to 143 °C | Cc1nc(N2CCC(NCCC(F)(F)F)C2=O)sc1C(=O)NCc1ccc(F)cc1 (stereo not shown) [Example 5.2, N-(4-fluorobenzyl)-4-methyl-2-(2-oxo-3-(3,3,3-trifluoropropylamino)pyrrolidin-1-yl)thiazole-5-carboxamide] |
| 39 to 40 °C | Cc1nc(N2CCCC(NCc3ccc(C(F)(F)F)cc3)C2=O)sc1C(=O)NCc1ccccc1 (stereo not shown) [Example 5.3, N-benzyl-4-methyl-2-(2-oxo-3-(4-(trifluoromethyl)benzylamino)piperidin-1-yl)thiazole-5-carboxamide] |
| 125 to 126 °C | Cc1nc(N2CCCC(NCC3CC3)C2=O)sc1C(=O)NCc1ccccc1 (stereo not shown) [Example 5.4, N-benzyl-2-(3-(cyclopropylmethylamino)-2-oxopiperidin-1-yl)-4-methylthiazole-5-carboxamide] |
| 143 to 144 °C | Cc1nc(N2CC(Cc3ccccc3)CC2=O)sc1C(=O)NCc1ccccc1 (stereo not shown) [Example 6, N-benzyl-2-(4-benzyl-2-oxopyrrolidin-1-yl)-4-methylthiazole-5-carboxamide] |
| 203 to 204 °C | Cc1nc(N2C[C@@H](O)CC2=O)sc1C(=O)NCc1ccccc1 [Example 7, (S)-N-benzyl-2-(4-hydroxy-2-oxopyrrolidin-1-yl)-4-methylthiazole-5-carboxamide] |
| 203 to 204 °C | Cc1nc(N2C[C@H](O)CC2=O)sc1C(=O)NCc1ccccc1 [Example 7.1, (R)-N-benzyl-2-(4-hydroxy-2-oxopyrrolidin-1-yl)-4-methylthiazole-5-carboxamide] |
| 169 to 170 °C | Cc1nc(N2CCC(Cc3ccc(F)cc3)C2=O)sc1C(=O)NCc1cccnc1 (stereo not shown) [Example 8, 2-(3-(4-fluorobenzyl)-2-oxopyrrolidin-1-yl)-4-methyl-N-(pyridin-3-ylmethyl)thiazole-5-carboxamide] |
| 158 to 160 °C | Cc1nc(N2CCC(Cc3ccc(OC(F)(F)F)cc3)C2=O)sc1C(=O)NCc1cccnc1 (stereo not shown) [Example 8.1, 4-methyl-2-(2-oxo-3-(4-(trifluoromethoxy)benzyl)pyrrolidin-1-yl)-N-(pyridin-3-ylmethyl)thiazole-5-carboxamide] |
| 74 to 75 °C | Cc1nc(N2CCCC(C(O)c3ccccc3)C2=O)sc1C(=O)NCc1ccccc1 (stereo not shown) [Example 10, N-benzyl-2-(3-(hydroxy(phenyl)methyl)-2-oxopiperidin-1-yl)-4-methylthiazole-5-carboxamide] |
| 171 to 172 °C | CCc1ccc(/C=C2\CCCN(c3nc(C)c(C(=O)NCc4ccccc4)s3)C2=O)s1 [Example 10.1, N-benzyl-2-(3-((5-ethylthiophen-2-yl)methylene)-2-oxopiperidin-1-yl)-4-methylthiazole-5-carboxamide] |
| 206 to 208 °C | Cc1nc(N2CCC/C(=C\c3cccnc3)C2=O)sc1C(=O)NCc1ccccc1 [Example 10.2, N-benzyl-4-methyl-2-(2-oxo-3-(pyridin-3-ylmethylene)piperidin-1-yl)thiazole-5-carboxamide] |
| 140 to 141 °C | Cc1nc(N2CCCC(Cc3cccnc3)C2=O)sc1C(=O)NCc1ccccc1 (stereo not shown) [Example 11, N-benzyl-4-methyl-2-(2-oxo-3-(pyridin-3-ylmethyl)piperidin-1-yl)thiazole-5-carboxamide] |
